Values after ≈ are worked out from the molar mass of the structure shown. Values joined by “and” are separate entries in the source; they are usually repeats but may differ in a detail not shown here. Equal values may be shown once. Read-outs that look alike come from different tables or passages of the source.
Legend:
Type in all cases: cell-based
[1] = tested on: Enterococcus faecalis ATCC 11420; assay: Broth dilution MIC/MBC, reference strain; conditions: for MBC/MIC: E. f. ATCC 11420; for MBC / MIC: Enterococcus faecalis, ATCC11420
Description: (§1) The tests were carried out using a serial dilution method, allowing the determination of MIC (minimal concentration inhibiting bacterial growth), MBC (minimal bactericidal concentration), and MFC (minimal fungicidal concentration) values.
(§2) Antimicrobial activity was tested using the following reference strains: Staphylococcus aureus ATCC 6538 (MSSA), Staphylococcus aureus ATCC 43300 (MRSA), Staphylococcus epidermidis PCM 2118, Escherichia coli ATCC 11229, Pseudomonas aeruginosa ATCC 15442, Proteus vulgaris NCTC 4635, Enterococcus faecalis ATCC 11420, and Candida albicans ATCC 10231.
(§3) A broth dilution method was used to determine minimal inhibitory concentration (MIC) for tested compounds as recommended by Clinical Laboratory Standards Institute (CLSI) guidelines. Investigated compounds were diluted in Mueller Hinton Broth 2 (Sigma-Aldrich Co., St. Louis, MO, USA) in polypropylene 96-well plates and initial inoculum 5 × 10^5 cfu/mL were incubated at 37 °C for 18 h. MIC was taken as the lowest drug concentration at which an observable growth was inhibited. […] The loopful (10 µL) of the tested sample was transferred to Tryptic Soy Agar (TSA, Becton-Dickinson, Franklin Lakes, NJ, USA) and incubated at 37 °C for 48 h. […] Drug Solutions were made fresh on the day of the assay. All experiments were performed in triplicate.

[2] = tested on: Escherichia coli ATCC 11229; assay: Broth dilution MIC/MBC, reference strain; conditions: for MBC/MIC: E. c. ATCC 11229; for MBC / MIC: Escherichia coli, ATCC11229
Description: as §1, §2, §3

[3] = tested on: Proteus vulgaris NCTC 4635; assay: Broth dilution MIC/MBC, reference strain; conditions: for MBC/MIC: P. v. NCTC 4635; for MBC / MIC: Proteus vulgaris, NCTC4635
Description: as §1, §2, §3

[4] = tested on: Pseudomonas aeruginosa ATCC 15442; assay: Broth dilution MIC/MBC, reference strain; conditions: for MBC/MIC: P. a. ATCC 15442; for MBC / MIC: Pseudomonas aeruginosa, ATCC15442
Description: as §1, §2, §3

[5] = tested on: Staphylococcus aureus ATCC 43300 (MRSA); assay: Broth dilution MIC/MBC, reference strain; conditions: for MBC/MIC: S. a. ATCC 43300; for MBC / MIC: Staphylococcus aureus
Description: as §1, §2, §3

[6] = tested on: Staphylococcus aureus ATCC 6538 (MSSA); assay: Broth dilution MIC/MBC, reference strain; conditions: for MBC/MIC: S. a. ATCC 6538; for MBC / MIC: Staphylococcus aureus
Description: as §1, §2, §3

[7] = tested on: Staphylococcus epidermidis PCM 2118; assay: Broth dilution MIC/MBC, reference strain; conditions: for MBC/MIC: S. e. PCM 2118
Description: as §1, §2, §3

[8] = tested on: Candida albicans ATCC 10231; assay: Broth dilution MIC/MFC, reference fungal strain; conditions: for MFC/MIC: C. a. ATCC 10231; for MFC / MIC: Candida albicans, ATCC10231
Description: as §1, §2, §3

[9] = tested on: HaCaT cell line (human keratinocyte); assay: MTT cell viability assay; conditions: MTT assay, 72 h incubation, mean ± SD, read-out: IC50 HaCaT
HCT-116 (colon cancer) = assay: MTT cell viability assay; conditions: Homo sapiens, 72 h incubation, mean ± SD
Description: (§4) Analysis was performed using the MTT test and 72 h of incubation.
(§5) All chemicals were obtained from Sigma-Aldrich (St. Louis, MO, USA). The MCF-7 and HeLa cell lines were purchased from Cell Lines Services (Eppelheim, Germany), the HCT-116 cell line was purchased from ATCC (ATCC-No: CCL-247). Cells were cultured in Dulbecco’s modified Eagle’s medium (DMEM) supplemented with 10% fetal bovine serum, 2 mM glutamine, 100 units/mL penicillin, and 100 μg/mL streptomycin. Cultures were held in an incubator (Heraceus, HeraCell) in a humidified atmosphere with 5% CO2 at 37 °C.
(§6) Cell viability was evaluated using the MTT (3-(4,5-dimethylthiazol-2-yl)-2,5-diphenyltetrazolium bromide) assay. Stock solutions of the studied compounds were obtained in 100% DMSO. […] Cells at a density of 5 × 10^3 cells/well, seeded in 96-well plates, were treated for 72 h with the tested compounds in the concentration range 1–100 μM (1, 10, 25, 50 and 100 μM). After treatment, cells were incubated for 2 h with MTT (0.5 mg/mL) at 37 °C. Cells were lysed with DMSO and the absorbance of the formazan solution was measured at 550 nm with a plate reader (1420 multilabel counter, Victor, Jügesheim, Germany). Values are expressed as the mean ± SD of at least three independent experiments conducted in triplicate.

HeLa (cervical cancer) = assay: MTT cell viability assay; conditions: Homo sapiens, 72 h incubation, mean ± SD
Description: as §4, §5, §6

MCF-7 (breast cancer) = assay: MTT cell viability assay; conditions: Homo sapiens, MCF7, 72 h incubation, mean ± SD
Description: as §4, §5, §6

[10] = E. faecalis ATCC 11420, read-out: MBC
[11] = E. faecalis ATCC 11420, read-out: MIC
[12] = E. coli ATCC 11229, read-out: MBC
[13] = E. coli ATCC 11229, read-out: MIC
[14] = P. vulgaris NCTC 4635, read-out: MBC
[15] = P. vulgaris NCTC 4635, read-out: MIC
[16] = P. aeruginosa ATCC 15442, read-out: MBC
[17] = P. aeruginosa ATCC 15442, read-out: MIC
[18] = S. aureus ATCC 43300, read-out: MBC
[19] = S. aureus ATCC 43300, read-out: MIC
[20] = S. aureus ATCC 6538, read-out: MBC
[21] = S. aureus ATCC 6538, read-out: MIC
[22] = Staphylococcus epidermidis, PCM2118, S. epidermidis PCM 2118, read-out: MBC
[23] = Staphylococcus epidermidis, PCM2118, S. epidermidis PCM 2118, read-out: MIC
[24] = C. albicans ATCC 10231, read-out: MFC
[25] = C. albicans ATCC 10231, read-out: MIC

MBC/MIC [1] | MIC [1, 11] [µg/mL] | MBC/MIC [2] | MIC [2, 13] [µg/mL] | MBC/MIC [3] | MIC [3, 15] [µg/mL] | MBC/MIC [4] | MIC [4, 17] [µg/mL] | MBC/MIC [5] | MIC [5, 19] [µg/mL] | MBC/MIC [6] | MIC [6, 21] [µg/mL] | MBC/MIC [7] | MFC/MIC [8] | Structure (SMILES) | MBC [1, 10] [µg/mL] | MBC [2, 12] [µg/mL] | MBC [3, 14] [µg/mL] | MBC [4, 16] [µg/mL] | MBC [5, 18] [µg/mL] | MBC [6, 20] [µg/mL] | other results
>4 | 32 (≈ 62 µM) | >1 | 128 (≈ 248 µM) | >1 | 128 (≈ 248 µM) | 1 | 128 (≈ 248 µM) | >16 | 8 (≈ 15.5 µM) | 16 | 8 (≈ 15.5 µM) | 32 | 2 | Cc1cc(S(=O)(=O)NC(=O)CCC2CCCCC2)c(SCc2ccc3ccccc3c2)cc1Cl [Compound 12, N-[4-Chloro-5-methyl-2-(naphthalen-2-ylmethylthio)benzenesulfonyl]-3-cyclohexylpropanamide] | > 128 | > 128 | > 128 | 128 (≈ 248 µM) | > 128 | 128 (≈ 248 µM) | MBC [7, 22]: 128 µg/mL (≈ 248 µM); MIC [7, 23]: 4 µg/mL (≈ 7.75 µM); MFC [8, 24]: 128 µg/mL (≈ 248 µM); MIC [8, 25]: 64 µg/mL (≈ 124 µM); IC50 [9]: 47 µg/mL and 92 µM; IC50 (HCT-116 (colon cancer)): 77 ± 3 µM; IC50 (HeLa (cervical cancer)): 88 ± 3 µM; IC50 (MCF-7 (breast cancer)): 94 ± 3 µM
>8 | 16 (≈ 30.4 µM) | 1 | 128 (≈ 243 µM) | >1 | 128 (≈ 243 µM) | 2 | 64 (≈ 122 µM) | 16 | 8 (≈ 15.2 µM) | 16 | 8 (≈ 15.2 µM) | 2 | 2 | Cc1cc(S(=O)(=O)NC(=O)C=Cc2ccccc2)c(SCc2ccc(C(F)(F)F)cc2)cc1Cl [Compound 14, N-[4-Chloro-5-methyl-2-(4-trifluoromethylbenzylthio)benzenesulfonyl]cinnamamide] | > 128 | 128 (≈ 243 µM) | > 128 | 128 (≈ 243 µM) | 128 (≈ 243 µM) | 128 (≈ 243 µM) | MIC [7, 23]: 8 µg/mL (≈ 15.2 µM); MFC [8, 24]: 128 µg/mL (≈ 243 µM); MIC [8, 25]: 64 µg/mL (≈ 122 µM); IC50 [9]: 147 µg/mL and 280 µM; IC50 (HCT-116 (colon cancer)): 81 ± 1 µM; IC50 (HeLa (cervical cancer)): 96 ± 5 µM; IC50 (MCF-7 (breast cancer)): 73 ± 1 µM
>8 | 16 (≈ 30.4 µM) | 1 | 128 (≈ 243 µM) | >2 | 64 (≈ 122 µM) | 2 | 64 (≈ 122 µM) | 16 | 8 (≈ 15.2 µM) | 16 | 8 (≈ 15.2 µM) | 1 | 2 | Cc1cc(S(=O)(=O)NC(=O)C=Cc2ccccc2)c(SCc2cccc(C(F)(F)F)c2)cc1Cl [Compound 15, N-[4-Chloro-5-methyl-2-(3-trifluoromethylbenzylthio)benzenesulfonyl]cinnamamide] | > 128 | 128 (≈ 243 µM) | > 128 | 128 (≈ 243 µM) | 128 (≈ 243 µM) | 128 (≈ 243 µM) | MBC ([7]; S. epidermidis PCM 2118): 8 µg/mL (≈ 15.2 µM); MBC [7, 22]: 4 to 16 µg/mL (≈ 7.6 to 30.4 µM); MIC [7, 23]: 8 µg/mL (≈ 15.2 µM); MFC [8, 24]: 128 µg/mL (≈ 243 µM); MIC [8, 25]: 64 µg/mL (≈ 122 µM); IC50 [9]: 79 µg/mL and 150 µM; IC50 (HCT-116 (colon cancer)): 86 ± 2 µM; IC50 (HeLa (cervical cancer)): 165 ± 9 µM; IC50 (MCF-7 (breast cancer)): 93 ± 3 µM

Structure (SMILES) | MBC/MIC [1] | MIC [1, 11] [µg/mL] | MBC/MIC [2] | MIC [2, 13] [µg/mL] | MBC/MIC [3] | MIC [3, 15] [µg/mL] | MBC/MIC [4] | MIC [4, 17] [µg/mL] | MBC/MIC [5] | MIC [5, 19] [µg/mL] | MBC/MIC [6] | MIC [6, 21] [µg/mL] | MBC/MIC [7] | MFC/MIC [8] | MBC [1, 10] [µg/mL] | MBC [2, 12] [µg/mL] | MBC [3, 14] [µg/mL] | MBC [4, 16] [µg/mL] | MBC [5, 18] [µg/mL] | MBC [6, 20] [µg/mL] | other results
Cc1cc(S(=O)(=O)NC(=O)C=Cc2ccccc2)c(SCc2ccccc2)cc1Cl [Compound 13, N-{[2-(Benzylthio)-4-chloro-5-methylphenyl]sulfonyl}cinnamamide] | >1 |  | >1 |  | >1 |  | >1 |  | >4 |  | >4 |  | >4 | 2 |  |  |  |  |  |  | MBC [1]: > 128 µg/mL; MIC [1]: > 128 µg/mL; MBC [2]: > 128 µg/mL; MIC [2]: 128 µg/mL (≈ 279 µM); MBC [3]: > 128 µg/mL; MIC [3]: 128 µg/mL (≈ 279 µM); MBC [4]: > 128 µg/mL; MIC [4]: 128 µg/mL (≈ 279 µM); MBC [5]: > 128 µg/mL; MIC [5]: 32 µg/mL (≈ 69.9 µM); MBC [6]: > 128 µg/mL; MIC [6]: 32 µg/mL (≈ 69.9 µM); MIC ([7]; Staphylococcus epidermidis, PCM2118): 32 µg/mL (≈ 69.9 µM); MBC ([7]; Staphylococcus epidermidis, PCM2118, S. epidermidis PCM 2118): > 128 µg/mL; MFC [8]: 128 µg/mL (≈ 279 µM); MIC [8]: 64 µg/mL (≈ 140 µM)

Source: article PMC6981581, “N-(2-Arylmethylthio-4-Chloro-5-Methylbenzenesulfonyl)amide Derivatives as Potential Antimicrobial Agents—Synthesis and Biological Studies” (International Journal of Molecular Sciences, 2019)
